# Experimental data reported in EP0126344A2, “Tripeptide esters of therapeutic agents” (ABBOTT LABORATORIES, priority 1983, dated 1984).
# How the values were obtained:
# [1] = test system: Staph. aureus, strain 642a; experiment: In vivo activity: survival of infected mice, intraperitoneal administration (Example 27); conditions: for ED50: Staphylococcus aureus, 642A, ip, 120 h, intraperitoneal injection, mice infected with 100 x LD50 Staph. aureus, read-out: effective dose (ED50); for Mice Surviving: 5 days after infection
# Description: (§1) Eight groups of ten female CF-1 mice, each weighing 18-20 g. were supplied with food and water ad lib and injected intraperitoneally with a lethal dose (100 x LD50) of Staph. aureus, strain 642a. At 1 and 5 hours after intraperitoneal infection, the mice were administered by intraperitoneal injection equal doses of either erythromycin A ("A") or 4"-L-leu-gly-L-pro-erythromycin A ("B") dissolved in a phosphate buffered saline solution.
# [2] = test system: Staph. aureus, strain 642a; experiment: In vivo activity: survival of infected mice, oral administration (Example 29); conditions: after 0.5 ml homogenized milk; for ED50: Staphylococcus aureus, 642A, 120 h, oral administration, mice infected with 100 x LD50 Staph. aureus, read-out: effective dose (ED50); for Mice Surviving: groups of ten mice, five days after infection
# Description: as §1
# The procedure of Example 25 was repeated except that the erythromycin A and 4"-L-leu-gly-L-pro erythromycin A were administered orally, and that 0.5 ml of homogenized milk was administered orally to each mouse prior to administration of the test compound to minimize acid degredation of the test compound.
# [3] = test system: Staph. aureus, strain 642a; experiment: In vivo activity: survival of infected mice, subcutaneous administration (Example 28); conditions: for ED50: Staphylococcus aureus, 642A, sc, 120 h, subcutaneous administration, mice infected with 100 x LD50 Staph. aureus, read-out: effective dose (ED50); for Mice Surviving: groups of ten mice, five days after infection
# Description: as §1
# The procedure of Example 25 was repeated except that the erythromycin A and 4"-L-leu-gly-L-pro-erythromycin A were administered subcutaneously instead of intraperitoneally.
# gastrointestinal tissue = experiment: Gastrointestinal motility in anesthetized dogs, strain gauge transducers (Example 30); conditions: 1.0 mg./kg. intravenously; strain gauge readings; result in words
# Description: Female beagle dogs having a weight of 7.0 to 11.0 kg. were anesthetized with pentobarbital and maintained in surgical anesthesia by supplemental I.V. injections of pentobarbital as needed. The body temperature of each dog was maintained at 36-37° C. The trachea was cannulated and the animal maintained on a respirator at 12 strokes/minute with a volume of 200 ml./stroke. The femoral artery was cannulated for blood pressure recording and both femoral veins were cannulated for intravenous injections and blood collection. Each dog was then prepared for gastrointestinal motility determinations as follows. […]
# After an equilibration period of 15 minutes, a dose of 50 pg/.kg. of methacholine was administered intravenously to the dog over a period of thirty seconds and the strain gauge readings were monitored to obtain a standard measurement of reactivity of the gastrointestinal tract.
# The strain gauge readings were again monitored to determine effect of the test compound on motility of the gastrointestinal tissue.
smiles,measurement,setting,value
"CC[C@H]1OC(=O)[C@H](C)[C@@H](O[C@H]2C[C@@](C)(OC)[C@@H](O)[C@H](C)O2)[C@H](C)[C@@H](O[C@@H]2O[C@H](C)C[C@H](N(C)C)[C@H]2O)[C@](C)(O)C[C@@H](C)C(=O)[C@H](C)[C@@H](O)[C@]1(C)O [A, erythromycin A]",ED50,[1],< 0.4 mg/kg
same,Mice Surviving,"[1]; total dose 0.4 mg/kg intraperitoneal, groups of ten mice",9
same,Mice Surviving,"[1]; total dose 1.9 mg/kg intraperitoneal, groups of ten mice",9
same,Mice Surviving,"[1]; total dose 7.5 mg/kg intraperitoneal, groups of ten mice",10
same,Mice Surviving,"[1]; total dose 30 mg/kg intraperitoneal, at 1 and 5 hours after infection, groups of ten female CF-1 mice",10
same,ED50,[2],110 mg/kg
same,Mice Surviving,[2]; total dose 2.3 mg/kg oral,0
same,Mice Surviving,[2]; total dose 9.4 mg/kg oral,0
same,Mice Surviving,[2]; total dose 37.5 mg/kg oral,0
same,Mice Surviving,[2]; total dose 150 mg/kg oral,7
same,ED50,[3],2.8 mg/kg
same,Mice Surviving,[3]; total dose 0.4 mg/kg subcutaneous,1
same,Mice Surviving,[3]; total dose 1.9 mg/kg subcutaneous,1
same,Mice Surviving,[3]; total dose 7.5 mg/kg subcutaneous,10
same,Mice Surviving,[3]; total dose 30 mg/kg subcutaneous,10
"CC[C@H]1OC(=O)[C@H](C)[C@@H](O[C@H]2C[C@@](C)(OC)[C@@H](OC(=O)[C@@H]3CCCN3C(=O)CNC(=O)[C@@H](N)CC(C)C)[C@H](C)O2)[C@H](C)[C@@H](O[C@@H]2O[C@H](C)C[C@H](N(C)C)[C@H]2O)[C@](C)(O)C[C@@H](C)C(=O)[C@H](C)[C@@H](O)[C@]1(C)O [B, 4""-L-leu-gly-L-pro-erythromycin A]",ED50,[1],0.6 mg/kg
same,Mice Surviving,"[1]; total dose 0.6 mg/kg intraperitoneal, groups of ten mice",5
same,Mice Surviving,"[1]; total dose 2.6 mg/kg intraperitoneal, groups of ten mice",10
same,Mice Surviving,"[1]; total dose 10.5 mg/kg intraperitoneal, groups of ten mice",10
same,Mice Surviving,"[1]; total dose 41.1 mg/kg intraperitoneal, groups of ten mice",10
same,ED50,[2],181 mg/kg
same,Mice Surviving,[2]; total dose 3.2 mg/kg oral,0
same,Mice Surviving,[2]; total dose 12.8 mg/kg oral,0
same,Mice Surviving,[2]; total dose 51.3 mg/kg oral,0
same,Mice Surviving,[2]; total dose 205 mg/kg oral,6
same,ED50,[3],3.1 mg/kg
same,Mice Surviving,[3]; total dose 0.6 mg/kg subcutaneous,2
same,Mice Surviving,[3]; total dose 2.6 mg/kg subcutaneous,5
same,Mice Surviving,[3]; total dose 10.5 mg/kg subcutaneous,6
same,Mice Surviving,[3]; total dose 41.1 mg/kg subcutaneous,10
"CC[C@H]1OC(=O)[C@H](C)[C@@H](O[C@H]2C[C@@](C)(OC)[C@@H](O)[C@H](C)O2)[C@H](C)[C@@H](O[C@@H]2O[C@H](C)C[C@H](N(C)C)[C@H]2O)[C@](C)(O)C[C@@H](C)C(=O)[C@H](C)[C@@H](O)[C@]1(C)O [Erythromycin Lactobionate, erythromycin A lactobionate]",effect of the test compound on motility of the gastrointestinal tissue,gastrointestinal tissue,"pronounced stimulation of the stomach, duodenum, jejunum and ileum, with no apparent effect on the colon"
